We go through six molecules from article PMC4476818, “Characterization of uronate dehydrogenases catalysing the initial step in an oxidative pathway” (Microbial Biotechnology, 2015).

In one data set the test system is T1, UdhFp.
T1 construct: gene udh; N-terminal His-tag, tag kept; synthetic codon-optimized gene, E. coli BL21(DE3); start MLEKLLI (from primer)
Put plainly: NADH formation at […] nm. Type of data set: biochemical, Fulvimarina pelagi.

The subject of another data set is T2, UdhOg.
T2 construct: gene udh; N-terminal His-tag, tag kept; wild-type gene from genomic DNA, E. coli BL21(DE3); start MKKIVLT (from primer)
Put plainly: NADH formation at […] nm. Type of data set: biochemical, Oceanicola granulosus.

Substrate in data set [1]: NC(=O)c1ccc[n+]([C@@H]2O[C@H](COP(=O)(O)OP(=O)(O)OC[C@H]3O[C@@H](n4cnc5c(N)ncnc54)[C@H](O)[C@@H]3O)[C@@H](O)[C@H]2O)c1
In words: purified protein. The conditions noted are these: 50 mM potassium phosphate pH 8.0, 37°C, uronic acid co-substrate, varied: cofactor. Type of data set: biochemical, Agrobacterium fabrum.

Substrate in data set [2]: NC(=O)c1ccc[n+]([C@@H]2O[C@H](COP(=O)(O)OP(=O)(O)OC[C@H]3O[C@@H](n4cnc5c(N)ncnc54)[C@H](O)[C@@H]3O)[C@@H](O)[C@H]2O)c1
Put plainly: purified protein. Type of data set: biochemical, Pseudomonas syringae group genomosp. 3. The conditions noted are these: 50 mM potassium phosphate pH 8.0, 37°C, uronic acid co-substrate, varied: cofactor.

[3] abbreviates: 50 mM potassium phosphate pH 8.0, 37°C, uronic acid co-substrate, read-out: KPi-Buffer / Kinetic parameters / Km.
The mark [4] stands for this setting: 50 mM Tris-HCl pH 8.0, 37°C, co-substrate NAD+, read-out: Tris-Buffer / Kinetic parameters / Km.

Like-named read-outs stand apart in the source and are kept apart here.

For `NC(=O)c1ccc[n+]([C@@H]2O[C@H](COP(=O)(O)OP(=O)(O)OC[C@H]3O[C@@H](n4cnc5c(N)ncnc54)[C@H](O)[C@@H]3O)[C@@H](O)[C@H]2O)c1` [NAD^+], the values for the Km with UdhFp (setting [3]) and with UdhOg (setting [3]) were 200 ± 20 µM and 400 ± 100 µM, respectively.

With `O=C(O)[C@H]1OC(O)[C@H](O)[C@@H](O)[C@@H]1O` (stereo partly shown) [Glucuronate], the values for the Km in the data set with UdhFp (setting [4]) and in the data set on UdhOg (setting [4]) were 200 ± 30 µM and 64000 ± 3000 µM, respectively.

With `O=C(O)[C@H]1OC(O)[C@@H](O)[C@@H](O)[C@@H]1O` (stereo partly shown) [Mannuronate], in the data set with UdhFp (setting [4]), the Km turned out to be 6400 ± 130 µM.

In the case of `O=C(O)[C@H]1OC(O)[C@H](O)[C@@H](O)[C@H]1O` (stereo partly shown) [Galacturonate], the Km was found to be 20 µM in the data set with UdhFp (setting [4]) and 55000 ± 3000 µM in the data set on UdhOg (setting [4]).

B1: UdhAt (Agrobacterium fabrum str. C58) (protein)
chain: MKRLLVTGAAGQLGRVMRERLAPMAEILRLADLSPLDPAGPNEECVQCDLADANAVNAMVAGCDGIVHLGGISVEKPFEQILQGNIIGLYNLYEAARAHGQPRIVFASSNHTIGYYPQTERLGPDVPARPDGLYGVSKCFGENLARMYFDKFGQETALVRIGSCTPEPNNYRMLSTWFSHDDFVSLIEAVFRAPVLGCPVVWGASANDAGWWDNSHLGFLGWKPKDNAEAFRRHITETTPPPDPNDALVRFQGGTFVDNPIFKQS
notes: N-terminal His-tag, tag kept; synthetic codon-optimized gene, E. coli BL21(DE3)
For the molecule B1, in the data set “purified protein [1]”, the Km was 100 ± 0 µM; the kcat – broadly, the number of substrate molecules converted per active site and unit of time at saturation – is 144 ± 14 s⁻¹; the kcat/Km (as a rule, the turnover number divided by the Michaelis constant) was determined as 1.08e+06 M⁻¹ s⁻¹.

B2: UdhPs (Pseudomonas syringae pv. tomato str. DC3000) (protein)
chain: MASAHTTQTPFNRLLLTGAAGGLGKVLRETLRPYSHILRLSDIAEMAPAVGDHEEVQVCDLADKDAVHRLVEGVDAILHFGGVSVERPFEEILGANICGVFHIYEAARRHGVKRVIFASSNHVIGFYKQNETIDAHSPRRPDSYYGLSKSYGEDMASFYFDRYGIETVSIRIGSSFPEPQNRRMMSTWLSFDDLTRLLERALYTPDVGHTVVYGVSDNKTVWWDNRFASKLDYAPKDSSEVFRAKVDAQPMPADDDPAMVYQGGAFVASGPFGDK
notes: as for B1
As to B2, in “purified protein [2]”, the Km is 200 ± 30 µM, the kcat was 215 ± 12 s⁻¹ and the kcat/Km was 1.26e+06 M⁻¹ s⁻¹.
